Measurements from patent publication US4349547A, “Suppressing obesity and over-secretion of insulin with 2-(α-hydroxy-m-trifluoromethylbenzyl)azetidine” (priority 1979, dated 1982).
Counter-ions that a name gives are not always drawn. Like-named read-outs stand apart in the source and are kept apart here.

What was measured:
[1] = Anorectic effect in rats; assay type: in vivo, rat (Sprague-Dawley); settings: Rattus norvegicus, oral gavage, 50% inhibition of food intake
Procedure: (b) Anorectic effect in rats
Sprague-Dawley (SD) rats, male and aged seven weeks, fasted for 24 hours (in groups of six individuals) were dosed, by oral gavage, with a solution of each test compound in 5% gum arabic, and feeding (CE-2 powder) was started at 0.5 hour after administration. The dose (ED50) which caused a 50% inhibition of food intake as compared with the control dosed with 5% gum arabic was determined.

[2] = Estimation of LD50 in mice; parameters: species or system mouse (ICR); settings: mouse, in vivo; oral; kept for seven days; Probit analysis
Procedure: (e) Estimation of LD50 in mice
ICR mice, male and aged nine weeks, were used without fasting. The mice (in groups of six individuals) were orally dosed with a solution of erythro-(I) hydrochloride (333, 500 and 750 mg/kg) or erythro-(VIII) hydrochloride (750, 1100 and 1700 mg/kg) in 5% gum arabic and kept for seven days. LD50 was calculated using the Probit analysis.

[3] = Anorectic effect in mice; assay type: in vivo, mouse (ICR); settings: 50 mg/kg oral gavage, control = 100
Procedure: (a) Anorectic effect in mice
ICR mice, male and aged seven weeks (in groups of six individuals), which had been acclimatized to 6-hour/day feeding (CE-2 powder, commercial product of Clea Japan Ltd., Tokyo, Japan) for seven days were administered a dosage, by oral gavage, with a solution of 50 mg/kg of each test compound in 5% gum arabic at 0.5 hour before feeding on the eighth day, and the food intakes were compared with those of control mice given 5% gum arabic only. Each figure in the table is the percent food intake, with the corresponding figure for the control being 100.

[4] = tested on: biosynthesis of fatty acid; experiment: Suppression of biosynthesis of fatty acid (incorporation of glucose-U-14C into liver and epididymal adipose tissue lipids); assay type: in vivo, rat (SD); settings: Rattus norvegicus, 1 h, oral, 50% inhibition of glucose-U-14C incorporation, 60 minutes after glucose
Procedure: (c) Suppression of biosynthesis of fatty acid
Male SD rats fasted for 24 hours, were orally dosed with erythro-(I) hydrochloride and after a lapse of 30 minutes, glucose-U-^14 C (140 μCi/2 g/kg) was orally administered. The animals were sacrificed after 60 minutes and the amounts of incorporation of glucose-U-^14 C into the liver and the epididymal adipose tissue lipids were determined to calculate the dose (ED50) which caused a 50% inhibition of glucose-U-^14 C incorporation, as compared to control rats, which had fasted, had not been so dosed, and had been orally administered with glucose-U-^14 C (140μCi/2 g/kg).

[5] = tested on: insulin secretion; experiment: Suppression of insulin secretion (insulin area after glucose loading); assay type: in vivo, rat (Fatty rats); settings: 50 mg/kg oral; glucose 3 g/kg after 30 minutes; blood at 30, 60 and 120 minutes; control 739
Procedure: (d) Suppression of insulin secretion
Fatty rats, female and aged 14 weeks, were used after fasting for 24 hours. The rats (in groups of five individuals) were orally dosed with a solution of 50 mg/kg of erythro-(I) hydrochloride in 5% gum arabic and, after 30 minutes, glucose (3 g/kg) was orally administered. At 30, 60 and 120 minutes after glucose loading, blood was withdrawn. The plasma samples were assayed for insulin and the insulin area was calculated.

[6] = Antiobesity action (general statement); assay type: in vivo; settings: compared with (VII)
[7] = Toxicity (general statement); settings: in vivo
[8] = in vivo
[9] = 0.5 hour, read-out: ED50 0.5 hour after administration
[10] = 1 hour, read-out: ED50 1 hour after administration
[11] = 2 hours, read-out: ED50 2 hours after administration

Compound	ED50 [1, 9] [mg/kg]	ED50 [1, 10] [mg/kg]	ED50 [1, 11] [mg/kg]	LD50 at 168 h [2] [mg/kg]	Food intake (%) 0.5 hour after administration [3] [%]	Food intake (%) 1 hour after administration [3] [%]	Food intake (%) 2 hours after administration [3] [%]	ED50 ([4]; epididymal adipose tissue lipids, read-out: Epididymal adipose tissue: ED50) [mg/kg]	ED50 ([4]; liver lipids, read-out: Liver: ED50) [mg/kg]	Insulin area [5] [μU/ml.hr]	antiobesity action [6]	toxicity [7]	absorbability on oral administration [8]
O[C@@H](c1cccc(C(F)(F)F)c1)[C@H]1CCN1 (relative stereo) [Erythro-(I) hydrochloride, erythro-2-(α-hydroxy-m-trifluoromethylbenzyl)azetidine hydrochloride]	20	20	25	499	44.0	50.6	67.0	20	20	51			
O[C@@H](c1ccccc1)[C@H]1CCN1 (relative stereo) [Erythro-(VII) hydrochloride, 2-(α-hydroxybenzyl)azetidine, reference compound]	35	50	300	902									
O[C@@H](c1cccc(C(F)(F)F)c1)[C@@H]1CCN1 (relative stereo) [Threo-(I) hydrochloride, Threo-2-(α-hydroxy-m-trifluoromethylbenzyl)azetidine hydrochloride]					55.0	72.0	84.8						
O[C@@H](c1ccccc1)[C@@H]1CCN1 (relative stereo) [Threo-(VII) hydrochloride, 2-(α-hydroxybenzyl)azetidine, reference compound]					70.0	89.3	98.3						
OC(c1cccc(C(F)(F)F)c1)C1CCN1 (stereo not drawn) [Compound (I), 2-(α-hydroxy-m-trifluoromethylbenzyl)azetidine]											very potent and long lasting antiobesity action, surpassing the action of (VII)	low toxicity	good absorbability on oral administration
